In US11078197B2, “5-membered and bicyclic heterocyclic amides as inhibitors of rock” (BRISTOL-MYERS SQUIBB COMPANY, priority 2017, dated 2021):
pIC50: −log10 of the molar value. Read-outs that look alike come from different tables or passages of the source.

Columns and labels:
ROCK2 = ROCK2 (Homo sapiens (Human), UniProt O75116); experiment: ROCK2 assay (peptide phosphorylation, LABCHIP 3000 Reader); format: biochemical; settings: 5 μM ATP, 1.5 μM peptide substrate, dose-response
Description: After incubation, the reaction was terminated by the addition of EDTA and the phosphorylated and non-phosphorylated peptides separated using a LABCHIP®3000 Reader (Caliper Life Sciences). […] Compounds were tested in dose-response format, and the inhibition of kinase activity was calculated at each concentration of compound. […] Representative Examples were tested in the ROCK2 assay described above and found having ROCK2 inhibitory activity.

[1] = test system: neointimal formation in rats; settings: cited from earlier work
Dahl salt-sensitive rats = settings: congestive heart failure; cited from earlier work
[2] = test system: spontaneously hypertensive rat, renal hypertensive rat and deoxycortisone acetate salt hypertensive rat models; settings: cited from earlier work
[3] = test system: porcine model of IL-1 beta-induced coronary stenosis; settings: long term treatment; cited from earlier work
rat stroke model = settings: cited from earlier work

Chain of ROCK2 (O75116 whole entry, species assumed): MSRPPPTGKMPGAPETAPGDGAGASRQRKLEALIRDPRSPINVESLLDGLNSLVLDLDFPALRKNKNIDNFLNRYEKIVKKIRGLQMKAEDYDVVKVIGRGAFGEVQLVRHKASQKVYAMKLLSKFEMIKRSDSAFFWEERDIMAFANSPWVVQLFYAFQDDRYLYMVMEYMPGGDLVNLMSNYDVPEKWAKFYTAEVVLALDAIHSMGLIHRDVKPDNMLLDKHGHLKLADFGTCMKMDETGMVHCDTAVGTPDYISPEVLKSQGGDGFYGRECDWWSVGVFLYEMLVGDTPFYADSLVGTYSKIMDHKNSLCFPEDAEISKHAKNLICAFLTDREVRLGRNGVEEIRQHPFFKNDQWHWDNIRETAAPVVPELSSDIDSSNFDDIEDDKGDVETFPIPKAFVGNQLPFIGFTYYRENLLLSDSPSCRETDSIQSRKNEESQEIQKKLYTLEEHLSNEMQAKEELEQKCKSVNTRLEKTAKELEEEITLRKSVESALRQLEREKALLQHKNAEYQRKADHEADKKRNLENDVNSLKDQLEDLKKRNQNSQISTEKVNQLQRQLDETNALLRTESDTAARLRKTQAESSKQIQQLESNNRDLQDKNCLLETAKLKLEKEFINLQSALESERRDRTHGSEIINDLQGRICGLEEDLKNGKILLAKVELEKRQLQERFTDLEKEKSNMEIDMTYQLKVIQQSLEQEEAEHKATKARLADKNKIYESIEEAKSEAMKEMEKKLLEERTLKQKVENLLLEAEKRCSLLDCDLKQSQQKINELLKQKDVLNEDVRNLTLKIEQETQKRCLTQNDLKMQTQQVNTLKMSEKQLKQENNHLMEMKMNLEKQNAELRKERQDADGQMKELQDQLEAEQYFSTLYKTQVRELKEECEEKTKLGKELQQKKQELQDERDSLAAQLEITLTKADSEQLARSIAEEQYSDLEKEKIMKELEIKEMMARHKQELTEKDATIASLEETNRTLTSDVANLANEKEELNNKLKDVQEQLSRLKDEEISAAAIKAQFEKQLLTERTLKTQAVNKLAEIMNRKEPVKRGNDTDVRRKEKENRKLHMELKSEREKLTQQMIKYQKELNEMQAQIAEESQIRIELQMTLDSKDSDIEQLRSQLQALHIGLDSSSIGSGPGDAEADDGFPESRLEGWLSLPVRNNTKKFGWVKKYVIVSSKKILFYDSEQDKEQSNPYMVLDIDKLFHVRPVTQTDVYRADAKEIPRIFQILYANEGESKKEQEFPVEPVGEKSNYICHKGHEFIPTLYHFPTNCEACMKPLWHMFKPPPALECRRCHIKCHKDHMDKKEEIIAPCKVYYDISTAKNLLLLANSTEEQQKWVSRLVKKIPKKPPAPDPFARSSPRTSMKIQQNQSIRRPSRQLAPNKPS

Structure (SMILES) | pIC50 (ROCK2) | further results
Cn1ncc2cc(C(N)=O)c(O[C@H]3C[C@@]4(C[C@H](NC(=O)c5nnc(-c6ccc(F)cc6F)s5)C4)C3)nc21 (stereo partly shown) [Example 151, 5-(2,4-difluorophenyl)-N-[(4s)-6-({5-carbamoyl-1-methyl-1H-pyrazolo[3,4-b]pyridin-6-yl}oxy)spiro[3.3]heptan-2-yl]-1,3,4-thiadiazole-2-carboxamide] | 7.87 | –
Cc1c(C(=O)N[C@H]2C[C@]3(C2)C[C@H](Oc2nc4c(cnn4C)cc2C(N)=O)C3)cnn1-c1ccc(C#N)cc1 (stereo partly shown) [Example 152, 1-(4-cyanophenyl)-5-methyl-N-[(4s)-6-({5-carbamoyl-1-methyl-1H-pyrazolo[3,4-b]pyridin-6-yl}oxy)spiro[3.3]heptan-2-yl]-1H-pyrazole-4-carboxamide] | 8.20 | –
Cc1c(C(=O)N[C@H]2C[C@]3(C2)C[C@H](Oc2nc4c(cnn4C)cc2C(N)=O)C3)cnn1-c1ccc(-c2cnn(C)c2)cc1 (stereo partly shown) [Example 153, 5-methyl-1-[4-(1-methyl-1H-pyrazol-4-yl)phenyl]-N-[(4s)-6-({5-carbamoyl-1-methyl-1H-pyrazolo[3,4-b]pyridin-6-yl}oxy)spiro[3.3]heptan-2-yl]-1H-pyrazole-4-carboxamide] | 9.10 | –
Cn1ncc2cc(C(N)=O)c(O[C@H]3C[C@@]4(C[C@H](NC(=O)c5cc(-c6ccc(S(C)(=O)=O)cc6)n(C(F)F)n5)C4)C3)nc21 (stereo partly shown) [Example 154, 1-(difluoromethyl)-5-(4-methanesulfonylphenyl)-N-[(4s)-6-({5-carbamoyl-1-methyl-1H-pyrazolo[3,4-b]pyridin-6-yl}oxy)spiro[3.3]heptan-2-yl]-1H-pyrazole-3-carboxamide] | 8.64 | –
Cn1ncc2cc(C(N)=O)c(O[C@H]3C[C@@]4(C[C@H](NC(=O)c5cc(-c6ccc(C#N)cc6)n(C(F)F)n5)C4)C3)nc21 (stereo partly shown) [Example 155, 5-(4-cyanophenyl)-1-(difluoromethyl)-N-[(4s)-6-({5-carbamoyl-1-methyl-1H-pyrazolo[3,4-b]pyridin-6-yl}oxy)spiro[3.3]heptan-2-yl]-1H-pyrazole-3-carboxamide] | 8.57 | –
Cn1ncc2cc(C(N)=O)c(O[C@H]3C[C@@]4(C[C@H](NC(=O)c5nnc(-c6cccc(S(C)(=O)=O)c6)s5)C4)C3)nc21 (stereo partly shown) [Example 156, 5-(3-methanesulfonylphenyl)-N-[(4s)-6-({5-carbamoyl-1-methyl-1H-pyrazolo[3,4-b]pyridin-6-yl}oxy)spiro[3.3]heptan-2-yl]-1,3,4-thiadiazole-2-carboxamide] | 8.37 | –
Cn1ncc2cc(C(N)=O)c(O[C@H]3C[C@@]4(C[C@H](NC(=O)c5cnc6c(cnn6CC(F)F)c5)C4)C3)nc21 (stereo partly shown) [Example 157, 1-methyl-6-{[(4s)-6-[1-(2,2-difluoroethyl)-1H-pyrazolo[3,4-b]pyridine-5-amido]spiro[3.3]heptan-2-yl]oxy}-1H-pyrazolo[3,4-b]pyridine-5-carboxamide] | 7.96 | –
Cc1c(C(=O)N[C@H]2C[C@]3(C2)C[C@H](Oc2nc4c(cnn4C)cc2C(N)=O)C3)cnn1-c1ccc(-c2cnn(CC(F)F)c2)cc1 (stereo partly shown) [Example 158, 1-{4-[1-(2,2-difluoroethyl)-1H-pyrazol-4-yl]phenyl}-5-methyl-N-[(4s)-6-({5-carbamoyl-1-methyl-1H-pyrazolo[3,4-b]pyridin-6-yl}oxy)spiro[3.3]heptan-2-yl]-1H-pyrazole-4-carboxamide] | 8.34 | –
Cn1ncc2cc(C(N)=O)c(O[C@H]3C[C@@]4(C[C@H](NC(=O)c5nn(CC(F)F)c6cc(OCC(C)(C)O)ccc56)C4)C3)nc21 (stereo partly shown) [Example 159, 1-(2,2-difluoroethyl)-6-(2-hydroxy-2-methylpropoxy)-N-[(4s)-6-({5-carbamoyl-1-methyl-1H-pyrazolo[3,4-b]pyridin-6-yl}oxy)spiro[3.3]heptan-2-yl]-1H-indazole-3-carboxamide] | 8.96 | –
Cn1ncc2cc(C(N)=O)c(O[C@H]3C[C@@]4(C[C@H](NC(=O)c5nn(CC(F)F)c6cc(OCC(C)(C)F)ccc56)C4)C3)nc21 (stereo partly shown) [Example 160, 1-(2,2-difluoroethyl)-6-(2-fluoro-2-methylpropoxy)-N-[(4s)-6-({5-carbamoyl-1-methyl-1H-pyrazolo[3,4-b]pyridin-6-yl}oxy)spiro[3.3]heptan-2-yl]-1H-indazole-3-carboxamide] | 8.80 | –
Cc1sc2cc(C(N)=O)c(O[C@H]3C[C@@]4(C[C@H](NC(=O)c5cnn(-c6ccc(F)cc6F)c5C)C4)C3)nc2c1C (stereo partly shown) [Example 161, 1-(2,4-difluorophenyl)-5-methyl-N-[(4s)-6-({6-carbamoyl-2,3-dimethylthieno[3,2-b]pyridin-5-yl}oxy)spiro[3.3]heptan-2-yl]-1H-pyrazole-4-carboxamide] | 6.65 | –
Cc1sc2cc(C(N)=O)c(O[C@H]3CC4(C[C@H](NC(=O)c5nnc(NCC(C)C)s5)C4)C3)nc2c1C (stereo partly shown) [Example 162, 5-[(2-methylpropyl)amino]-N-[(4s)-6-({6-carbamoyl-2,3-dimethylthieno[3,2-b]pyridin-5-yl}oxy)spiro[3.3]heptan-2-yl]-1,3,4-thiadiazole-2-carboxamide] | 6.79 | –
C[C@@H](N)[C@H]1CC[C@H](C(=O)Nc2ccncc2)CC1 [Example Y-27632, Y-27632] | – | neointimal formation [1]: inhibited neointimal formation; ventricular hypertrophy, fibrosis and function (Dahl salt-sensitive rats): improve ventricular hypertrophy, fibrosis and function; blood pressure ([2]; control rats): only a minor effect on blood pressure; blood pressure ([2]; three rat models of hypertension): significantly decrease blood pressure
O=S(=O)(c1cccc2cnccc12)N1CCCNCC1 [fasudil] | – | coronary constrictive remodeling [3]: promote a regression of coronary constrictive remodeling; coronary stenosis [3]: progressively reduce coronary stenosis; infarct size and neurologic deficit (rat stroke model): reduce both the infarct size and neurologic deficit
